# Results as given in a melting point compilation (Tetko et al.; mined from patent text by program, amines drawn as free bases though some values may be those of a salt).
row,SMILES,melting point [°C]
1,Cc1nc2cc(NC(=O)c3cc4cc(C(F)(F)F)cnc4n3Cc3cccc(F)c3)ccc2n1C,263 to 265
2,CC(C)c1nc(N(C)S(C)(=O)=O)nc(-c2ccc(F)cc2)c1/C=C/C=O,86.5
3,O=C(CC1CCNCC1)c1ccc(N2CCCC2)cc1,144 to 145
4,CCN1CC2CCCC2C1CNC(=O)c1cc(Cl)c(N)cc1OC (configuration not stated),128 to 129
5,NC(=O)CNC(=O)CN1CCCC1=O,147 to 148
6,O=C1C(O)=C(c2ccc3ccccc3c2)C(=O)C(O)=C1c1ccc2ccccc2c1,328 to 329
7,CC(C)(C)c1cc(SC(Sc2cc(C(C)(C)C)c(O)c(C(C)(C)C)c2)c2ccccc2)cc(C(C)(C)C)c1O,122 to 124
8,COC=C(C(=O)OC)N(C)c1cc(-c2cccc(OC)c2)ncn1,87 to 90
9,O=C1c2ccccc2C(=O)C1c1ccncn1,168 to 169
10,CN(N)C(=O)N=C1CCC(CC2CCC(=NC(=O)N(C)N)CC2)CC1 (configuration not stated),187 to 193
11,O=C(O)CCc1oc(SCc2ccccn2)nc1-c1ccc(Cl)cc1,125 to 126
12,CN=C(NC#N)NCCSCc1ccsn1,63 to 64
13,CC(C)(CNC1(c2ccccc2Cl)C(=O)Nc2ccc(Cl)cc21)NC(=O)OC(C)(C)C (configuration not stated),164
14,C#CCn1c(=O)n(CC=C)c(=O)n(-c2cc(N3C(=O)C4=C(CCCC4)C3=O)c(F)cc2Cl)c1=O,107 to 114
15,Cc1cc(=O)n(-c2ccc(Cl)cc2F)c(=O)n1C,145
16,CN1CCC(Oc2ccc(F)cc2C(N)=O)C1 (configuration not stated),90 to 93
17,CNC1C(O)CC2C3CCC4CC(=O)CCC4(C)C3CCC21C (configuration not stated),167 to 174
18,O=[N+]([O-])N=C1N(COCCBr)CCN1Cc1ccc(Cl)nc1,90 to 92
19,CCN(C(=O)C(C)n1c(=O)n(C)c2nc(-c3ccccc3)ncc21)c1ccccc1 (configuration not stated),150 to 151
20,O=C(CCCCCN1CCN(c2cccc3c2CCC3)CC1)N1Cc2ccccc2C1,112
21,CC(C)(C)OC(=O)N[C@@H](CSc1ccccc1N)C(=O)O,109 to 111
22,CCCCOC(=O)CSc1ncnc2c(O)n(C)nc12,172
23,c1ccc(Nc2ncnc3[nH]ccc23)cc1,234 to 236
24,COC(=O)c1ccc(-c2ccc(-c3cn([C@H]4CN5CCC4CC5)nn3)s2)cc1Cl,200
25,COc1ncc(Br)cc1/C=C/C(=O)c1ccc(Cl)cc1,168 to 172
26,COC(=O)c1c(C)[nH]c(-c2ncccn2)c1C(=O)OC,140 to 146

row,SMILES,melting point [°C]
1,CCOC(=O)CNc1cc(F)ccc1[N+](=O)[O-],194 to 195
2,CN1CCC(c2ccccc2)(N2CCCC2)C(O)C1 (configuration not stated),149 to 151
3,CC(C)(C)[Si](C)(C)Oc1ccccc1-c1cc(-c2ccc([N+](=O)[O-])cc2)c(C#N)c(N)n1,168 to 169
4,O=C(O)c1cc2n(c1)CCc1ccccc1C2=O,287 to 290
5,O=C(O)c1cc(C(=O)C(F)(F)F)cc2c1OC(c1ccccc1)(c1ccccc1)O2,187
6,O=C1C(=Cc2ccccc2)CS(=O)(=O)CC1=Cc1ccccc1,201 to 203
7,CCC(CC)(CCC#N)C(NC(=O)c1ccc(Cl)cc1)NC(=N[N+](=O)[O-])Nc1cccnc1 (configuration not stated),100 to 110
8,COC(=O)c1ccc2c(c1)C=CC(=O)CO2,89 to 93
9,Cc1ccc(C(=O)OCC2OC(n3cc(C#C[Si](C)(C)C)c(=O)[nH]c3=O)CC2F)cc1 (configuration not stated),130
10,CCc1nnc(-c2ccc(OC)c(OC)c2)n1-c1ccc(OC)cc1,148
11,CN(C)C(=O)C1N=C(c2ccccc2)c2cc(Cl)ccc2NC1=O (configuration not stated),297
12,BrCc1ccc(-c2ccc(CBr)cc2)cc1,166 to 168
13,N#CC(Cl)=C(Cl)S(=O)(=O)c1cc(Cl)ccc1Cl,84
14,CC1=Nc2c(C)nn(C)c2C2=NC(C)(C)CN12,148 to 150
15,CS(=O)(=O)N(Cc1ccncc1)c1ccc(F)cc1F,101 to 105
16,Cc1cc(Br)ccc1NC(=O)c1cccc(S(=O)(=O)N2CCCCCC2)c1,177 to 179
17,COC(=O)c1c(C)nc(-c2ccccc2)nc1-c1cccc(OC(F)F)c1,62 to 63
18,COCCNC(=O)c1cccc(-c2cccc3cc(Cc4cccc(N(C)C)c4)sc23)c1,92 to 93
19,CN(C)CCCN1N=C2C(=Cc3ccccc3)CCCCC2C1c1ccccc1 (configuration not stated),92 to 94
20,Nc1c(C(=O)c2cccc(C(=O)O)c2)[nH]c2cc(Cl)ccc12,263 to 270
21,Cc1c(C(N)=O)oc2ccc(Cc3cccnc3)cc12,175 to 177
22,C[C@H]1CCCC(C)(C)[C@@H]1C(=O)O,44 to 54
23,NC(=O)c1cc2c(Oc3ccc(Cl)cc3)cncc2s1,176 to 177
24,CC(C)(C)N1C(=O)C(=O)N(c2ccc(C#N)cc2)C1=S,200 to 201
25,N#CC(C(=O)Nc1ccccn1)C(=O)c1nn(-c2ccccc2)c2c1CSc1ccccc1-2 (configuration not stated),258 to 260
26,CC1CN(c2nc(N)nc(-c3cc(Cl)ccc3Cl)n2)CC(C)O1 (configuration not stated),192 to 195

row,SMILES,melting point [°C]
1,NCCc1c[nH]c2ccc(NC(N)=O)cc12,188 to 190
2,Cc1cn(C2CC2)c(=O)nc1NS(=O)(=O)c1ccc(N)cc1,134 to 136
3,O=S1(=O)N=CN(C2CC2)c2ccc(C(F)(F)F)cc21,160 to 162
4,CCCc1c(OCC(=O)O)ccc(C(C)=O)c1O,128 to 130
5,C#Cc1ccc2c(c1)C=C(C(=O)O)C(C(F)(F)F)O2 (configuration not stated),198 to 200
6,O=C(Cc1ccccc1N1CCCC1)N1C[C@@H]2SCCC(c3ccccc3)(c3ccccc3)[C@@H]2C1 (racemic),166
7,CN1C(=O)CC[C@]2(C)c3ccc(-c4cccc(NC(=O)C(C)(C)C)c4)cc3CC[C@@H]12,95 to 98
8,CCCOc1ccccc1-c1nc2nc(SC)nnc2c(=O)[nH]1,247 to 249
9,COc1cccc(-c2nc3n(n2)Cc2cc(OC)ccc2-3)c1,166 to 167
10,CN1CCN(c2cc(Cl)cc3c2c(=O)n(Cc2cccc4ccccc24)c(=O)n3Cc2ccccc2)CC1,75 to 89
11,CNC(=NCCSCc1ccc2nc[nH]c2c1)NC#N,191
12,Cc1cc(Nc2ccnc(Nc3ccc(S(=O)(=O)N(CC4CCCO4)C4CCN(C)CC4)cc3)n2)ccc1F (configuration not stated),189
13,CCc1nn(-c2ccc(F)cc2)c2c1C(C)N(C)C2=O (configuration not stated),65
14,CCCCCCCCCc1ccc(C(Sc2cccc(NC(=O)CC(=O)OC)c2)C(=O)CCCC(=O)OC)cc1 (configuration not stated),88 to 91
15,COc1ccc(N2CCCC2=O)cc1OC1CCCC1,130 to 131
16,O=C1NCC(C(F)(F)F)C(=O)N1Cc1ccccc1 (configuration not stated),129 to 130
17,Cc1ccc(C)c(NC(=O)CCl)c1C,145 to 146
18,O=C(Nc1ccccc1)c1ccc2c(c1)S(=O)(=O)NCN2C1CC1,268 to 270
19,CCC(C)c1cc2c(cc1O)CC[C@@H]1[C@@H]2CC[C@]2(C)C(=O)CC[C@@H]12 (some centres not stated),186 to 187
20,CCCCOc1c(CN2C(=O)c3ccccc3C2=O)n(CC2CC2)c(=O)c2ccc(Br)cc12,156 to 157
21,COc1cc(-c2ccc(O)c(C3(C)CCCCC3)c2)cc(CC2SC(N3CCOCC3)=NC2=O)c1O (configuration not stated),221 to 223
22,Nc1ccc(NC(=O)OCc2ccccc2)c(O)c1,148
23,O=C(O)c1ccc(Cc2ccccc2)cn1,145 to 147
24,O=Cc1cc2ccccc2c(-c2ccc(I)cc2)n1,243 to 245
25,COc1cc(CCc2cnc(N)nc2N)cc(OC)c1OC,155 to 157
26,O=C(O)C1CCc2cc(Cl)c(C3CCCCC3)cc21 (configuration not stated),140 to 143

row,SMILES,melting point [°C]
1,COC(=N)c1ccc(-c2cc3ncn([C@H](C)[C@](O)(Cn4cncn4)c4ccc(F)cc4F)c(=O)c3s2)cc1,194 to 201
2,COc1ccc2c(C(=O)O)nn(Cc3ccc(Cl)c(Cl)c3)c(=O)c2c1,238 to 240
3,CCCNC(=O)Nc1nn(Cc2ccccc2)cc1C(=O)OCC,100 to 101
4,CC1(C(=O)CC#N)CC1,32 to 33
5,CCCCOc1cc(/C=C/C(=O)NS(=O)(=O)CCC(C)C)n(Cc2ccc(Cl)cc2Cl)n1,119 to 120
6,Cc1cc(C(=O)N2CCCC2)ccc1[N+](=O)[O-],61.3 to 61.9
7,O=C(Nc1ccccc1)N(CCCn1ccnc1)C1=Nc2cccc3cccc1c23,240 to 250
8,COc1ccc2[nH]c(SCc3ncc(C)c(N4CCCC4)c3Cl)nc2c1,152 to 158
9,COc1ccc(Cn2c(=O)oc(=O)c3cccnc32)cc1,160
10,CNC(=S)N(C)NC(=O)c1cccc(F)c1,202 to 205
11,NC(=O)c1cc(F)c(-n2ncc(Cl)c(Cl)c2=O)cc1F,> 260
12,CN(C)CCCCCOc1ccc2oc(-c3ccccc3)cc(=O)c2c1,82 to 83
13,O=C(O)C1CCC(c2ccccc2)n2c(=O)n(CCS)c(=O)n21 (configuration not stated),172 to 175
14,N#Cc1cccc(Oc2c(-c3ccccc3)cccc2-c2ccccc2)c1C#N,129 to 130
15,CC(C)(S)CNC(=O)CCCC(=O)O,101 to 104
16,Nc1c(-c2ccc(Cl)cc2)nnn1-c1ccc(C(F)(F)F)cc1F,170
17,CS(=O)c1nnc(-c2ccc3ncn(-c4ccc(OC(F)F)cc4)c3c2)o1 (configuration not stated),135 to 136
18,CCOC1CN(Cc2ccc(OC)cc2)Cc2cc(OC)c(OCc3ccccc3)cc21 (configuration not stated),84 to 85
19,O=C(O)c1cccnc1NCc1ccccc1,148
20,Nc1[nH]nc(-c2ccncc2)c1-c1ccc(F)cc1,116 to 118
21,Cc1oc(-c2ccccc2)nc1CCOc1ccc(CC(C)(C(=O)O)n2ccc(Br)c2)cc1 (configuration not stated),158 to 159
22,CC(C(=O)N1CCCC1C(=O)O)N(CC(=O)C(Cc1ccccc1)NC(=O)c1ccccc1)C(=O)OCc1ccccc1 (configuration not stated),70 to 91
23,CN(Cc1cccc2c1C(=O)N(C1CCC(=O)NC1=O)C2=O)C(=O)NC1CCCCC1 (configuration not stated),243 to 245
24,COc1ccc(OC2COc3ccc(OCc4ccc5ccccc5n4)cc3C2O)cc1 (configuration not stated),131 to 132
